Test results as given in PubChem BioAssay (NCI).
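Briefly, cells in 96-well plates were exposed to five compound concentrations for 48 h, and endpoints were estimated by linear interpolation. GI50: concentration for 50% inhibition of growth. TGI: total growth inhibition.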

What was measured:
Assay in all cases: NCI tumour cell line growth inhibition, 48 h
[1] = tested on: DLD-1 colon
[2] = tested on: XF 498 CNS
[3] = tested on: RXF-631 renal
[4] = tested on: KM20L2 colon
[5] = tested on: DMS 273 small cell lung
[6] = tested on: DMS 114 small cell lung
[7] = tested on: M19-MEL melanoma
[8] = tested on: MDA-N
[9] = tested on: HOP-18 NSCLC
[10] = tested on: SN12K1 renal
[11] = tested on: P388 leukemia

c1ccc2c(c1)Cc1c(Cc3csc4ccccc34)ccc3cccc-2c13
TGI [1]: > 100 µM | TGI [2]: > 100 µM | TGI [3]: > 100 µM | TGI [4]: > 100 µM | TGI [5]: > 100 µM | TGI [6]: > 100 µM | TGI [7]: > 100 µM

COc1cc(/C=C(\NC(=O)c2ccccc2)c2nc3ncncc3[nH]2)cc(OC)c1OC
TGI [1]: > 100 µM | TGI [2]: > 100 µM | TGI [3]: > 100 µM | TGI [4]: > 100 µM | TGI [5]: > 100 µM | TGI [7]: > 100 µM

O=C(Nc1ccccc1)OC1OC(COC(=O)c2ccccc2)C(OC(=O)c2ccccc2)C1OS(=O)(=O)c1ccc([N+](=O)[O-])cc1 (configuration not stated)
TGI [8]: > 100 µM

COc1ccc(/C=C/C(=O)c2c(-c3ccccc3)nn(C)c(=O)c2N2CCOCC2)cc1
TGI [9]: > 100 µM | TGI [1]: > 100 µM | TGI [2]: 83.9 µM | TGI [3]: > 100 µM | TGI [4]: > 100 µM | TGI [5]: > 100 µM | TGI [6]: > 100 µM | TGI [7]: > 100 µM

CC1(C)C(=O)C(C)(C)C1=NNC(N)=S
TGI [2]: > 100 µM | TGI [3]: > 100 µM | TGI [4]: > 100 µM | TGI [5]: > 100 µM | TGI [6]: > 100 µM | TGI [7]: > 100 µM

OC1CCCC2CCC[N-]C12.OC1CCCC2CCC[N-]C12.[O]=[V][OH] (configuration not stated)
GI50 [8]: 5.86 µM | TGI [8]: > 100 µM

CC1(C)c2ccccc2N2O[C@@H]3C(=O)N(c4ccccc4)C(=O)[C@@H]3C21c1ccccc1 (some centres not stated)
TGI [1]: > 100 µM | TGI [2]: > 100 µM | TGI [5]: > 100 µM | TGI [6]: > 100 µM | TGI [7]: > 100 µM

Cc1c2ccncc2c(C)c2c1sc1ccccc12
TGI [8]: 47.6 µM

CCc1cc2c(O)c(c1)Cc1cc(CC)cc(c1O)Cc1cc(CC)cc(c1O)Cc1cc(CC)cc(c1O)Cc1cc(CC)cc(c1O)Cc1cc(CC)cc(c1O)Cc1cc(CC)cc(c1O)C2
TGI [1]: > 100 µM | TGI [2]: > 100 µM | TGI [4]: > 100 µM | TGI [5]: > 100 µM | TGI [6]: > 100 µM | TGI [7]: > 100 µM

Nc1nc2c(-c3ccc([N+](=O)[O-])cc3)nnn2c2ccccc12
TGI [9]: > 100 µM | TGI [1]: > 100 µM | TGI [2]: > 100 µM | TGI [5]: > 100 µM | TGI [7]: > 100 µM

N#C/C(=C1\OC(=N)C(c2ccccc2)C1=O)c1ccccc1 (configuration not stated)
TGI [9]: 92.3 µM | TGI [1]: 39.1 µM | TGI [2]: 46.2 µM | TGI [4]: > 100 µM | TGI [5]: > 100 µM | TGI [6]: > 82.2 µM | TGI [7]: 56.5 µM

O=C1NC2(CCCCC2)C(=O)N1CCN(CCCl)CCCl
TGI [9]: > 250 µM | TGI [1]: > 250 µM | TGI [10]: > 250 µM | TGI [2]: 39.6 µM | TGI [11]: 189 µM | TGI [8]: > 25 µM | TGI [4]: > 194 µM | TGI [5]: > 223 µM | TGI [6]: 248 µM | TGI [7]: > 250 µM

CC(=O)Nc1ccc(S(=O)(=O)N=S(C)C)cc1
TGI [8]: > 100 µM

O=C(N/C(=C\c1ccccc1O)c1nc2ccccc2[nH]1)c1ccccc1
TGI [9]: > 100 µM | TGI [2]: > 100 µM | TGI [4]: > 100 µM | TGI [5]: > 100 µM | TGI [6]: > 100 µM | TGI [7]: > 100 µM

C(=C\C(Sc1ccccc1)c1ccccc1)/NNC1=NC(c2ccccc2)C(c2ccccc2)=NN1 (configuration not stated)
TGI [9]: > 100 µM | TGI [1]: 56 µM | TGI [2]: > 100 µM | TGI [3]: > 100 µM | TGI [4]: > 100 µM | TGI [5]: > 100 µM | TGI [6]: > 100 µM | TGI [7]: > 100 µM

NS(=O)(=O)c1ccc(NC(=O)C2C(=O)C(=O)N(c3ccc(S(N)(=O)=O)cc3)C2=O)cc1 (configuration not stated)
TGI [9]: > 100 µM | TGI [1]: > 100 µM | TGI [3]: > 100 µM | TGI [4]: > 100 µM | TGI [5]: > 100 µM | TGI [6]: > 100 µM | TGI [7]: > 100 µM

COS(C)(=O)=O
TGI [8]: > 2 µM

COc1ccc(OC)c(/C=C2\CCc3ccccc3C2=O)c1
TGI [9]: 57.1 µM | TGI [1]: 22.8 µM | TGI [2]: 11 µM | TGI [4]: 9.62 µM | TGI [5]: 12.8 µM | TGI [6]: 5.21 µM | TGI [7]: 23.5 µM

O=C(CC1C(=O)Nc2ccccc2S1(=O)=O)Nc1ccc(Cl)cc1 (configuration not stated)
TGI [1]: > 100 µM | TGI [2]: 30.5 µM | TGI [3]: > 100 µM | TGI [4]: > 100 µM | TGI [5]: 45.6 µM | TGI [6]: 55.7 µM | TGI [7]: 61.9 µM

NC(Cc1c[nH]c2ccc([N+](=O)[O-])cc12)C(=O)O (configuration not stated)
TGI [8]: > 100 µM
